These results are taken from US7538220B2, “Intermediates in the preparation of homocamptothecin analogs” (University of Pittsburgh - of the Commonwealth System of …, priority 1999, dated 2009).

Series [1] is described as follows: Lactone ring stability in mouse blood by HPLC. The settings on record: for Ratio of Lactone Level Mouse/Human: blood, 3 hours of incubation; for Percent Lactone in Mouse Blood after 3 Hours of Incubation: pH 7.4, 37° C.
Method: The hydrolysis kinetics of camptothecins in the presence of different blood components were determined by a quantitative C18 reversed-phase high-performance liquid chromatography (HPLC) assay modified from methodologies described previously in the literature cited above. The preparation of whole blood and fractionated blood samples was carried out as described previously. Crystallized HSA of high purity (>97%) from Sigma Chemical (St. Louis, Mo.) was used. HSA stock solutions were prepared in PBS buffer with a final pH of 7.40±0.05. HSA concentrations were determined by UV absorbance at 278 nm using an extinction coefficient of 39,800 M^−1 cm^−1 (Porter, 1992). All other agents were reagent grade and were used without further purification. High purity water provided by a Milli-Q UV PLUS purification system (Bedford, Mass.) was utilized in all experiments. HPLC solvents were from Fisher Scientific. Human plasma and red blood cells were obtained from Central Kentucky Blood Center. […] Blood from mice was collected in heparinized tubes and stored at 5-10° C. until use.
HPLC assays were performed either on a Waters Alliance 2690 HPLC system equipped with a temperature-controlled autosampler and Waters 474 scanning fluorescence detector. A second HPLC system was composed of a Waters HPLC system composed of 501 HPLC pumps, 717 Plus temperature-controlled autosampler and 470 scanning fluorescence detector. The HPLC assay procedures used for the homosilatecans are summarized below. Solvent A consisted of acetonitrile and Solvent B was 2% triethylammonium acetate, pH 5.5, with a flow rate of 1 ml/min. For DB-38 an isocratic elution was used: 33% Solvent A; 67% Solvent B; λex:345 nm and λem:518 nm. For DB-81 an isocratic elution was used: 56% Solvent A; 44% Solvent B; and λex:375 nm and λem:444 nm. For DB-90 an isocratic elution was used: 41% Solvent A; 59% Solvent B; λex:412 nm and λem:526 nm. For DB-91 an isocratic elution of 42% Solvent A, 58% Solvent B, and λex:392 nm and λem:562 nm.
To determine drug stability in whole blood, whole blood was incubated at 37° C. for 30 min and pH determined. Blood pH was adjusted to 7.4+/−0.5 using either 0.1 M KOH or 0.1 M HCl. Blood samples were incubated at 37° C. for 30 min and pH remeasured to ensure that it is within the range before an individual assay was started. Aliquots of blood (2 ml each) were removed and placed in three disposable glass test tubes and the tubes were incubated at 37° C. […] Incubation at 37° C. was continued and 150 μl aliquots were removed at different time points and added to 600 μl of cold methanol (−20° C.) in an eppendorf tube. The tube was then vortexed for 10 sec and centrifuged in a table top microcentrifuge at 8000 rpm for 45 sec. The Supernatant was removed and placed in an autosampler vial and the vial quickly added to the autosampler maintained at 4° C. The sample was analyzed immediately on the HPLC set-up. The data analysis was as described for the drug in PBS only samples.
For series [2] the following is noted: PBS solution containing HSA; cited from earlier work.
For series [3] the following is noted: cited from earlier work.
Series [4] in a line: Lactone ring stability in whole human blood by HPLC. Conditions: for Percent Lactone in Human Blood after 3 Hours of Incubation: pH 7.4, 37° C. (Table 4). As for the experimental part: All experiments were conducted at pH 7.4 and 37° C.
(§1) HPLC solvents were from Fisher Scientific.

The conditions of series [5]: whole human blood; cited from earlier work.
Series [6] relates to MDA-MB-435 tumorigenic metastatic human breast cancer cells. In words: Cytotoxicity, sulphorrhodamine B (SRB) assay. The class given is cell-based. The settings on record: MDA-MB-435, 72 hr exposure, SRB assay, without HSA, read-out: IC50 (w/o HSA). As for the experimental part: Cytotoxicity measurements were conducted using MDA-MB-435 tumorigenic human breast cancer cells. The cells were exposed to a range of drug concentrations for 72 hr exposure periods and then viability was assessed using a sulphorrhodamine B (SRB) assay. The SRB measures the total protein levels in the living cells. Proteins from dead cells are lysed and removed in the washing step before TCA fixation. However, it is possible that cells in the early stage of death still have their membrane integrity and therefore retain the protein contents inside. As a result, the optical density at 490 nm can sometimes be overestimated and the cytotoxicity underestimated. […] The SRB assay is now a well regarded assay and was recently approved by NCl as a standard assay for anticancer drug screening. […] Each IC50 value represents the average of three separate trials with each dosage level studied in triplicate.
In general terms: In SRB staining, fixed cells bind dye roughly in proportion to their protein.

Series [7] in a line: Fluorescence anisotropy titration, equilibrium binding to DMPC small unilamellar vesicles. Conditions: electroneutral DMPC vesicles, PBS pH 7.4, 37° C.; K values subject to 10% uncertainty. The class given is physicochemical. The procedure: (§2) As a consequence of the brilliant fluorescence emissions from the newly synthesized homosilatecans (a summary of the spectral parameters can be found in Table 1), the lipid bilayer adsorption isotherms summarized in FIG. 4 were relatively free from any background signal. The method of fluorescence anisotropy titration was used to construct the adsorption isotherms. The experiments were conducted at drug concentrations of 1 μM in PBS buffer (37° C.). […] Because of the potential of the lactone ring of the homosilatecans and camptothecins to hydrolyze in PBS, anisotropy values at each lipid concentration were determined immediately (approx. 1 min.) following the addition of the lactone form of each agent to the liposome suspension as to minimize any possibility of conversion to the carboxylate form. Using drug concentrations of 1 μM and long pass filters to isolate emitted light from background signal (that is, scattered exciting light and extraneous fluorescence signal resulting from the possible presence of impurities), signal levels from drugs dissolved in PBS buffer were typically 99.97% in the absence of membrane and greater than 98% in the presence of membrane. Adsorption isotherms were used to determine overall association constants for the homosilatecan, silatecan, and camptothecin drugs. Overall association constants are defined as: K=[AB]/[AF][L] where [AB] represents the concentration of bound drug, [AF] represents the concentration of free drug, and [L] represents the total lipid concentration in the vesicle suspension. This equation is valid when the concentration of free lipid is approximately equal to the concentration of total lipid (that is, the concentration of free lipid is in significant excess over the concentration of bound drug). Provided this condition is satisfied, K may be determined from the inverse of the slope of a double reciprocal plot. In such a double reciprocal plot, 1/fraction of the total drug bound is plotted vs. 1/lipid concentration, with a y-intercept value of 1 (for a system displaying binding site homogeneity). Such double-reciprocal plots for the associations of the new homosilatecans analogs (both lactone and carboxylate forms) with DMPC and DMPG small unilamellar vesicle (SUV) preparations were linear with good correlation coefficients.
(§3) The studies summarized in Table 2 examine the structural basis of homosilatecan associations for lipid bilayers. Two types of membranes were included in these studies which were conducted under near physiological conditions of pH and temperature; these membranes include fluid-phase and electroneutral L-α-dimyristoylphosphatidyl-choline (DMPC); and fluid-phase and negatively-charged L-α-dimyristoylphosphatidylglycerol (DMPG). DMPC and DMPG have identical chain length but the charges on their head groups differ.
(§4) In the studies of Table 2, binding isotherms were constructed using the method of fluorescence anisotropy titration as discussed above, and K values were determined from the slopes of the double-reciprocal plots. The K values are subject to 10% uncertainty. One of the most striking features of the data contained in Table 2 is the strong modulation which can be achieved through the creation of A,B,E-ring modified camptothecins (for example, the homosilatecans known as DB-38, DB-90, and DB-91) or B,E-ring modified camptothecins (for example, the homosilatecan known as DB-81). Homosilatecans containing either a sole substitution at the 7 position or dual substitution at the 7 and 10 positions have been created and found to display very high lipophilicities. Included in Table 2 are camptothecin compounds (topotecan and camptothecin). For DB-81, the lipophilicity for DMPC membranes relative to corresponding value for topotecan increases over 1,400-fold. Data for these agents were included to show the highly lipophilic nature of the new homocamptothecins relative to compounds such as topotecan and camptothecin. […]
In general terms: Polarisation of emitted light reports the rotation of a fluorescent probe.

The target in series [8] is T1, human serum albumin (HSA) (Homo sapiens, UniProt P02768). Conditions: PBS pH 7.4; cited from earlier work.
For series [9] the following is noted: previously observed, Burke et al. 1993; cited from earlier work.
Series [10] concerns the target T1, human serum albumin (HSA). In words: Binding of camptothecin lactone and carboxylate forms to human serum albumin, frequency-domain fluorescence lifetime spectroscopy.
A short description of series [11]: Lactone ring stability in PBS by HPLC. The settings on record: PBS pH 7.4, 3 hours, 37° C., 1 μM. The class given is physicochemical. As for the experimental part:
FIG. 12 contrasts the improved stabilities of four novel homosilatecans of the present invention with their corresponding silatecan structure containing the α-hydroxylactone functionality. All the experiments of FIG. 12 were conducted in PBS at 37° C.
as §1
To determine the stabilities of homosilatecans in PBS, an aliquot of each of the homosilatecans in DMSO was added to phosphate buffered saline (PBS), pH 7.4 in a HPLC autosampler vial maintained at 37° C. in a water bath to result in final drug concentration of 1 μM. The drug-containing vial was quickly transferred to the autosampler maintained at 37° C. and aliquots analyzed at various time points. All the determinations were done in triplicate. The data was collected and analyzed using Waters Millenium software. The fraction of lactone was calculated using the peak area of lactone and carboxylate peak and using the lactone/carboxylate ratio.

A short description of series [12]: Fluorescence anisotropy titration, equilibrium binding to DMPG small unilamellar vesicles. The class given is physicochemical. Conditions: negatively charged DMPG vesicles, PBS pH 7.4, 37° C.; K values subject to 10% uncertainty. As for the experimental part: as §2, §3, §4
[13] abbreviates: whole human blood, 3 hours incubation, pH 7.4, 37° C., 1 μM.

“And” between values parts separate entries of the source, which are not always exact repeats. Identical values can stand only once. Like-named read-outs stand apart in the source and are kept apart here.

T1 sequence (P02768 25-609): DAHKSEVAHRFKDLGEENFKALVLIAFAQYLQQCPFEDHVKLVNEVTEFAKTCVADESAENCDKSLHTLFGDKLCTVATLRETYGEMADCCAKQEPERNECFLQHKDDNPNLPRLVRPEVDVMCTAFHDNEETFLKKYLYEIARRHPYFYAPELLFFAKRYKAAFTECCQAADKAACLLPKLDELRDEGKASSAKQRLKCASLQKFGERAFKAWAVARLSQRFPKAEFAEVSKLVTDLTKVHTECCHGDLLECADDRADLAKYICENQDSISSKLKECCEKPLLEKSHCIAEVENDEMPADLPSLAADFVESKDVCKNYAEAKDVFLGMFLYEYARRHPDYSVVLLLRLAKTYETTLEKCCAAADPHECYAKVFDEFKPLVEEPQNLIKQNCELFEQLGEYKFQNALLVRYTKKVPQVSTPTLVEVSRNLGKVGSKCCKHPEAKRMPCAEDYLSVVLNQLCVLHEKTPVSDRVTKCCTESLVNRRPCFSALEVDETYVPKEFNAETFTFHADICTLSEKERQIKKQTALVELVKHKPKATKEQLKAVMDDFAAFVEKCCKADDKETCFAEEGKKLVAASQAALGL

Regarding `CC[C@@]1(O)C(=O)OCc2c1cc1n(c2=O)Cc2cc3c(N)cccc3nc2-1` [9-Aminocamptothecin, 9-aminocamptothecin], in series [1], the “Ratio of Lactone Level Mouse/Human” value was determined as 100 and the “Percent Lactone in Mouse Blood after 3 Hours of Incubation” value was 38%. Besides, in series [2], the extent of hydrolysis is on record as over 99%. The “percentage of lactone at equilibrium” value in series [3] (human plasma, pH 7.4, 37° C.) is reported as 0.2%. For the same compound, in series [3] (plasma), the “fraction converted to carboxylate” value is over 99.5%. Moreover, in [4], the “Percent Lactone in Human Blood after 3 Hours of Incubation” value is listed as 0.4%. Besides, the “% Lactone” value in series [4] (setting [13]) is listed as “approx. 0.3%”.

On to `CCc1c2c(nc3ccc(OC(=O)N4CCC(N5CCCCC5)CC4)cc13)-c1cc3c(c(=O)n1C2)COC(=O)[C@]3(O)CC` [CPT-11], for which the “percentage of lactone at equilibrium” value in [5] is reported as 21.0%. Moreover, the “lactone level at equilibrium relative to 9-aminocamptothecin” value in series [4] (whole human blood) is given as “approximately 40 fold”. In addition, the “% Lactone” value in [4] (setting [13]) was “approx. 21.0%”.

As for `CC[C@@]1(O)C(=O)OCc2c1cc1n(c2=O)Cc2cc3ccccc3nc2-1` [Camptothecin], the IC50 in series [6] amounted to 12 ± 4 nM. Moreover, in series [1], the “Ratio of Lactone Level Mouse/Human” value is reported as 3 and the “Percent Lactone in Mouse Blood after 3 Hours of Incubation” value was 20%. The “t1/2 of lactone ring opening” value in series [5] was 22 min. In addition, in series [7], the “KDMPC overall association constant” value was found to be 100 M⁻¹. For the same compound, the “HSA binding affinity of carboxylate form relative to lactone form” value in [8] was 200 fold and > 100 fold. Further, in series [9], the “decrease in affinity for DMPC upon opening of the lactone ring” value is on record as 3 fold. Further, the “HSA binding preference for the carboxylate relative to the lactone” value in [10] amounted to 200 fold. The “K, HSA binding of the carboxylate form” value in [10] (carboxylate form) amounted to 1.2e+06 M⁻¹. Also, the “K, HSA binding of the lactone form” value in [10] (lactone form) was “≈ 5.5×10^3 M^−1”. In addition, the “% Lactone” value in [11] is listed as “approximately 12%”. In series [3] (human plasma, pH 7.4, 37° C.), the “percentage of lactone at equilibrium” value is 0.2% and the “t1/2 of lactone ring opening” value is reported as 11 min. Further, the “KDMPG overall association constant” value in series [12] is 100 M⁻¹. Moreover, in series [4], the “Percent Lactone in Human Blood after 3 Hours of Incubation” value is 7%. For the same compound, the “lactone level at equilibrium relative to 9-aminocamptothecin” value in series [4] (whole human blood) is “approximately 10 fold”. Further, the “% Lactone” value in series [4] (setting [13]) is given as “approx. 6%”.

As for `CC[C@@]1(O)C(=O)OCc2c1cc1n(c2=O)Cc2c-1nc1ccc(O)cc1c2[Si](C)(C)C(C)(C)C` [DB-67, reference compound], the “KDMPC overall association constant” value in [7] was 2,500 M^−1.

On to `CCC(O)(CC(=O)O)c1cc2n(c(=O)c1CO)Cc1c-2nc2ccc(N)cc2c1[Si](C)(C)C(C)(C)C` (stereo not drawn) [DB-90 carboxylate form, carboxylate form of 7-t-butyl-dimethylsilyl-10-aminohomocamptothecin], for which the “KDMPC overall association constant” value in series [7] stood at 770 M⁻¹. Further, the “KDMPG overall association constant” value in series [12] turned out to be 80 M⁻¹.

Turning to `CCC(O)(CC(=O)O)c1cc2n(c(=O)c1CO)Cc1c-2nc2ccc(O)cc2c1[Si](C)(C)C(C)(C)C` (stereo not drawn) [DB-91 carboxylate form, ring-opened or carboxylate form of 7-t-butyldimethylsilyl-10-hydroxyhomocamptothecin], the “KDMPC overall association constant” value in series [7] was found to be 700 M⁻¹. In series [12], the “KDMPG overall association constant” value came out at 100 M⁻¹.

Turning to `CCc1c2c(nc3ccc(O)cc13)-c1cc3c(c(=O)n1C2)COC(=O)[C@]3(O)CC` [SN-38, 7-ethyl-10-hydroxycamptothecin], in series [5], the “percentage of lactone at equilibrium” value was 19.5%. The “KDMPC overall association constant” value in series [7] was determined as 300 M⁻¹. In series [4] (whole human blood), the “lactone level at equilibrium relative to 9-aminocamptothecin” value is given as “approximately 40 fold”. Further, in series [4] (setting [13]), the “% Lactone” value is on record as “approx. 30%”.

Regarding `CC[C@@]1(O)C(=O)OCc2c1cc1n(c2=O)Cc2cc3c(CN(C)C)c(O)ccc3nc2-1` [Topotecan, reference compound], the “percentage of lactone at equilibrium” value in [5] is 11.9%. Moreover, the “KDMPC overall association constant” value in [7] is 10 M⁻¹. Further, the “% Lactone” value is given as “approximately 12%” in series [11] and “approx. 15%” in series [4] (male, human, 3 h, 1 μM, pH 7.4). The “KDMPG overall association constant” value in series [12] is 50 M⁻¹. The “lactone level at equilibrium relative to 9-aminocamptothecin” value in series [4] (male, human, 1 μM, pH 7.4) is 20 fold.
